Results: patent publication US20250289827A1, “MORPHIC FORMS OF A MUTANT BRAF DEGRADER AND METHODS OF MANUFACTURE THEREOF” (C4 THERAPEUTICS, INC., priority 2022, published 2025)

Experiments:
[1] = Plasma and brain pharmacokinetics in A375-luciferase intracranial model; parameters: species or system BALB/c nude mice; conditions: mouse, in vivo
Method: To determine the level of CNS and plasma exposure of Compound 1 compared to encorafenib, a separate pharmacokinetics/pharmacodynamics (PK/PD) study was conducted. Mice were inoculated with luciferase tagged A375 cells as stated above. The tumors were left to establish and expand for 14 days before the study. […] Samples from 3 mice per treatment group were collected at 1, 12, 24, and 48 hours. To test the plasma samples, the mice were anesthetized, and blood was collected into a tube with EDTA-K2, centrifuged, transferred to a fresh tube, and stored frozen. Following blood collection, the mice were perfused for fifteen minutes, decapitated, and the brain was collected and frozen. The harvested plasma and brain were processed for pharmacokinetics analysis by LC/MS/MS with a concentration range of 1-1,000 ng/mL and pharmacodynamics analysis by Western Blot. The concentrations of Compound 1 and encorafenib found in the plasma is shown in FIG. 42, and the concentration found in the brain is shown in FIG. 43.

BRAF^V600E = BRAF^V600E (Homo sapiens, UniProt P15056, V600E); test: BRAF V600E degradation in A375 cells; type: cell-based; conditions: 24 hr
BRAF^V600E, sequence (P15056 whole entry V600E): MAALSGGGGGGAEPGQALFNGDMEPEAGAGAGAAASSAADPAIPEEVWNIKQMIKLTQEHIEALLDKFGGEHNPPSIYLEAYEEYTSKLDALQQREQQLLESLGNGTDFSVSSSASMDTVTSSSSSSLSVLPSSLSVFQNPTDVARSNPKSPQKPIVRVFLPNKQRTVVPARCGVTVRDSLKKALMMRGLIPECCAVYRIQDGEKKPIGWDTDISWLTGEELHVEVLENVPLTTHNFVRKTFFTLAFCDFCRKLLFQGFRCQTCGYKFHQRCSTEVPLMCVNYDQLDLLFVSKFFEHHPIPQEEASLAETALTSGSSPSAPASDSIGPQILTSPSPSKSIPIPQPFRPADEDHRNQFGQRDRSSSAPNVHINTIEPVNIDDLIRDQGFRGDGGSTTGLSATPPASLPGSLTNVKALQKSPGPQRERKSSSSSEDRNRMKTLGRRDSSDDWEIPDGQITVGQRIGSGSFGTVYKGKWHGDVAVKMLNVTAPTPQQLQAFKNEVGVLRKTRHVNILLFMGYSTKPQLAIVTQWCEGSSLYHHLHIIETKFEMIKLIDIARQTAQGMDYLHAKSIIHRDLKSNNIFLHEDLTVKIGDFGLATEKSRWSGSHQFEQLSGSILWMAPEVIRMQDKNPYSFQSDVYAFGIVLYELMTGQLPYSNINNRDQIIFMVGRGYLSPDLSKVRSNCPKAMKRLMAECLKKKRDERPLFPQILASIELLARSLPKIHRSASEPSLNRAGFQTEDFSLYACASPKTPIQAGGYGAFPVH

[2] = Solubility in spray drying solvent system; type: physicochemical; conditions: 80:20 dichloromethane:methanol, organic solvent or mixture
Source text: The stability of the SDI was supported by XRPD and HPLC purity and assay data. The secondary drying parameters were established to ensure adequate SDI stability during drying and that the ICH limits for residual dichloromethane and methanol can be met. Through a feasibility batch and an engineering batch, an SDI manufacturing process is established.

[3] = Water sorption and desorption (DVS) of Compound 1 Form B; type: physicochemical; conditions: for 1st desorp. Weight % change / 1st sorp. Weight % change / 2nd desorp. Weight % change / 2nd sorp. Weight % change: 25° C.
Method: Water sorption and desorption behavior of Compound 1 Form B was investigated by DVS at 25° C. with a cycle of 40-0-95-0-40% RH, dm/dt 0.002, min. equilibration time 60 min and maximum equilibration time 360 min XRPD was measured after the DVS test to determine form change.

[4] = Wet granulation simulation experiments; type: physicochemical
Method: Water or ethanol was added drop wise to about 20 mg of Compound 1 Form B until the sample was wetted sufficiently. Wet sample was ground gently with in a mortar and a pestle. Post granulation sample was dried under ambient condition for 10 min. Potential form change and degree of crystallinity were evaluated by XRPD.

[5] = Crystallization by vapor diffusion; type: physicochemical
Method: About 50 mg of Compound 1 Form A was dissolved in the minimal amount of selected solvents at ambient temperature (about 20-25° C.). Obtained solutions were filtered through a 0.45 μm syringe membrane filter. […] Then these 8 mL lid less vials were placed to 40 mL glass vials. To the 40 mL vials were added anti-solvents. Then these 40 mL vials were capped tightly and placed at ambient condition for up to 21 days. Precipitates were collected by centrifugation filtration through a 0.45 μm nylon membrane filter at 14,000 rpm. Solid parts (wet cakes) were investigated by XRPD.

[6] = Salt screening by anti-solvent addition; type: physicochemical; conditions: Choline; MeOH/0.2 mL, anti-solvent MTBE/0.3 mL
[7] = Equilibration with solvents at 25° C. for 4 weeks (XRPD); type: physicochemical
Method: About 50 mg of Compound 1 free Form A was equilibrated in 0.1-1 mL of solvents at 25° C. for 4 weeks with a stirring bar on a magnetic stirring plate at a rate of 300 rpm. The obtained suspensions were filtered through a 0.45 μm nylon membrane filter by centrifugation at 14,000 rpm. Solid parts (wet cakes) were investigated by XRPD.

[8] = Acetone/water (v:v = 86:14) a.w. = 0.6
[9] = Acetonitrile/water (v:v = 96:4) a.w. = 0.6
[10] = DMF/water (v:v = 73:27) a.w. = 0.6
[11] = Methanol/water (v:v = 69:31) a.w. = 0.6
[12] = THF/water (v:v = 82:18) a.w. = 0.9
[13] = THF/water (v:v = 92:8) a.w. = 0.6

CCN(C)S(=O)(=O)Nc1ccc(F)c(Oc2ccc3ncn([C@H]4COC5(CCN(C(=O)CC6(O)CCN(c7cc8c(cc7F)c(N7CCC(=O)NC7=O)nn8C)CC6)CC5)C4)c(=O)c3c2)c1C#N [Compound 1, (3R)-3-[6-[2-cyano-3-[[ethyl(methyl)sulfamoyl]amino]-6-fluorophenoxy]-4-oxoquinazolin-3-yl]-8-[2-[1-[3-(2,4-dioxo-1,3-diazinan-1-yl)-5-fluoro-1-methylindazol-6-yl]-4-hydroxypiperidin-4-yl]acetyl]-1-oxa-8-azaspiro[4.5]decane]
Blood brain barrier penetration [1]: high level of blood brain barrier penetration
BRAF protein degraded (BRAF^V600E): 74%
DC50 (BRAF^V600E): 14 nM
solubility [2]: > 100 mg/mL

CCN(C)S(=O)(=O)Nc1ccc(F)c(Oc2ccc3ncn([C@H]4COC5(CCN(C(=O)CC6(O)CCN(c7cc8c(cc7F)c(N7CCC(=O)NC7=O)nn8C)CC6)CC5)C4)c(=O)c3c2)c1C#N [Compound 1 Form B]
1st desorp. Weight % change ([3]; 0% RH): 0.0%
1st sorp. Weight % change ([3]; 0% RH): 0.0%
2nd desorp. Weight % change ([3]; 0% RH): 0.0%
2nd sorp. Weight % change ([3]; 0% RH): 0.0%
1st desorp. Weight % change ([3]; 10% RH): 0.1%
1st sorp. Weight % change ([3]; 10% RH): 0.1%
2nd desorp. Weight % change ([3]; 10% RH): 0.1%
2nd sorp. Weight % change ([3]; 10% RH): 0.1%
1st desorp. Weight % change ([3]; 20% RH): 0.3%
1st sorp. Weight % change ([3]; 20% RH): 0.2%
2nd desorp. Weight % change ([3]; 20% RH): 0.3%
2nd sorp. Weight % change ([3]; 20% RH): 0.2%
1st desorp. Weight % change ([3]; 30% RH): 0.4%
1st sorp. Weight % change ([3]; 30% RH): 0.3%
2nd desorp. Weight % change ([3]; 30% RH): 0.4%
2nd sorp. Weight % change ([3]; 30% RH): 0.3%
1st desorp. Weight % change ([3]; 40% RH): 0.5%
1st sorp. Weight % change ([3]; 40% RH): 0.4%
2nd desorp. Weight % change ([3]; 40% RH): 0.5%
2nd sorp. Weight % change ([3]; 40% RH): 0.4%
1st sorp. Weight % change ([3]; 50% RH): 0.5%
2nd desorp. Weight % change ([3]; 50% RH): 0.8%
1st sorp. Weight % change ([3]; 60% RH): 0.6%
2nd desorp. Weight % change ([3]; 60% RH): 0.9%
1st sorp. Weight % change ([3]; 70% RH): 0.7%
2nd desorp. Weight % change ([3]; 70% RH): 1.0%
1st sorp. Weight % change ([3]; 80% RH): 0.9%
2nd desorp. Weight % change ([3]; 80% RH): 1.2%
1st sorp. Weight % change ([3]; 90% RH): 1.2%
2nd desorp. Weight % change ([3]; 90% RH): 1.4%
1st sorp. Weight % change ([3]; 95% RH): 1.6%
2nd desorp. Weight % change ([3]; 95% RH): 1.6%
Crystallinity change after water sorption and desorption ([3]; DVS 25° C., 40-0-95-0-40% RH cycle): no changes in crystallinity
Water uptake ([3]; DVS 25° C., at 95% RH): 1.6%
XRPD after wet granulation ([4]; granulation solvent Ethanol): Form B; no crystallinity decrease.
XRPD after wet granulation ([4]; granulation solvent Water): Form B; no crystallinity decrease.
Crystallinity change after wet granulation ([4]; in the presence of water or ethanol): no changes in crystallinity

CCN(C)S(=O)(=O)Nc1ccc(F)c(Oc2ccc3ncn([C@H]4COC5(CCN(C(=O)CC6(O)CCN(c7cc8c(cc7F)c(N7CCC(=O)NC7=O)nn8C)CC6)CC5)C4)c(=O)c3c2)c1C#N [Compound 1 Form A]
Results ([5]; 2-MeTHF (8.0) / MTBE (32.0) mL): Few solids
Results ([5]; Acetone (2.5) / MTBE (10.0) mL): Oil material
Results ([5]; Acetonitrile (3.0) / MTBE (12.0) mL): Oil material
Results ([5]; DMSO (0.2) / Ethanol (0.8) mL): Oil material
Notes [6]: Sticky material
Comments ([7]; 1,4-Dioxane/heptane (v:v = 1:1)): Sticky material
Comments ([7]; 2-MeTHF): Medium crystallinity
XRPD (solid form after equilibration) ([7]; 2-MeTHF): Form C
Comments ([7]; Acetone): Medium crystallinity
XRPD (solid form after equilibration) ([7]; Acetone): Form B
XRPD (solid form after equilibration) ([7]; Acetone/water (v:v = 36:64) a.w. = 0.9): Almost amorphous
Comments [7, 8]: Clear solution
Comments: concentration of clear solution [7, 8]: (about 500 mg/mL)
Comments ([7]; Acetonitrile): Medium crystallinity
XRPD (solid form after equilibration) ([7]; Acetonitrile): Form B
Comments ([7]; Acetonitrile/water (v:v = 42:58) a.w. = 0.9): Sticky material
Comments (crystallinity) [7, 9]: Medium
XRPD (solid form after equilibration) [7, 9]: Form B
Comments ([7]; DCM/heptane (v:v = 1:1)): Sticky material
Comments ([7]; DCM/methanol (v:v = 1:1)): Clear solution
Comments: concentration of clear solution ([7]; DCM/methanol (v:v = 1:1)): (about 500 mg/mL)
Comments ([7]; DMF): Clear solution
Comments: concentration of clear solution ([7]; DMF): (about 500 mg/mL)
XRPD (solid form after equilibration) ([7]; DMF/water (v:v = 30:70) a.w. = 0.9): Almost amorphous
Comments [7, 10]: Clear solution
Comments: concentration of clear solution [7, 10]: (about 500 mg/mL)
XRPD (solid form after equilibration) ([7]; DMSO/water (v:v = 23:77) a.w. = 0.9): Almost amorphous
XRPD (solid form after equilibration) ([7]; DMSO/water (v:v = 57:43) a.w. = 0.6): Almost amorphous
Comments ([7]; Ethanol): Low crystallinity
XRPD (solid form after equilibration) ([7]; Ethanol): Form A
Comments ([7]; Ethyl acetate): Medium crystallinity
XRPD (solid form after equilibration) ([7]; Ethyl acetate): Form C*
Comments ([7]; Isopropanol): Low crystallinity
XRPD (solid form after equilibration) ([7]; Isopropanol): Form A
Comments ([7]; Isopropyl acetate): Low crystallinity
XRPD (solid form after equilibration) ([7]; Isopropyl acetate): Form A
Comments ([7]; MTBE): Low crystallinity
XRPD (solid form after equilibration) ([7]; MTBE): Form A
Comments ([7]; Methanol): Low crystallinity
XRPD (solid form after equilibration) ([7]; Methanol): Form B
XRPD (solid form after equilibration) ([7]; Methanol/water (v:v = 22:78) a.w. = 0.9): Almost amorphous
Comments [7, 11]: Low crystallinity
XRPD (solid form after equilibration) [7, 11]: Form B
Comments ([7]; Methyl ethyl ketone): Medium crystallinity
XRPD (solid form after equilibration) ([7]; Methyl ethyl ketone): Form B
Comments ([7]; THF/heptane (v:v = 1:1)): Medium crystallinity
XRPD (solid form after equilibration) ([7]; THF/heptane (v:v = 1:1)): Form B
Comments [7, 12]: Clear solution
Comments: concentration of clear solution [7, 12]: (about 500 mg/mL)
Comments [7, 13]: Clear solution
Comments: concentration of clear solution [7, 13]: (about 500 mg/mL)
Comments ([7]; Toluene): Low crystallinity
XRPD (solid form after equilibration) ([7]; Toluene): Form A
